In PMC11988034, “Exposure–Response Relationships for Toceranib in Dogs with Solid Tumors: A Pilot Study” (Animals : an Open Access Journal from MDPI, 2025):
Read-outs that look alike come from different tables or passages of the source.

How the values were obtained:
[1] = cited from earlier work
[2] = test system: canine solid tumors; set-up: method as in PMID 12855656, PMID 22236194, PMID 34981886; details: various types of canine solid tumors; cited from earlier work
[3] = Assessment of adverse events (VCOG-CTCAE v2.0) in dogs treated with TOC; assay type: in vivo
Procedure: AEs were evaluated before TOC treatment (at baseline) and 1, 2, and 4 weeks thereafter, followed by regular check-ups every 1–2 months. At each follow-up, a physical examination, blood pressure measurement, hematological and biochemical tests, and urinalysis were performed. AEs were graded according to the Veterinary Cooperative Oncology Group Common Terminology Criteria for AEs (v2.0). Concomitant medications, including famotidine, omeprazole, silymarin, ursodeoxycholic acid, mirtazapine, and tramadol, were allowed to prevent or treat drug-related AEs. TOC was permanently discontinued upon request of the owner or if unacceptable AEs occurred or disease progression was identified.

[4] = Plasma toceranib concentration (LC–MS/MS) in dogs with solid tumors treated with TOC; assay type: in vivo; details: for concentration at 48 h / Cmax: plasma; for concentration at 48 h: oral; for Cmax: po
Procedure: A prospective, randomized clinical trial was conducted on client-owned dogs diagnosed with malignant solid tumors between May 2022 and October 2023 at the Konkuk University Animal Cancer Center. TOC ([…], NJ, USA) was administered orally at a dose range of 2.4-2.9 mg/kg every other day with or without food. Medical data for the dogs were collected, including signalment (age, sex, and neuter status); physical examination, blood pressure, hematology, biochemistry, urinalysis, diagnostic imaging (radiography, ultrasound, and computed tomography), and histopathological findings (surgical margin and mitotic count); TOC dose and duration of TOC treatment; and AEs and clinical outcomes. Dogs were excluded from this study if distant metastases were confirmed at the time of diagnosis or if the TOC treatment duration was less than 1 month, which is insufficient for evaluating its effect. This clinical trial was approved by the Institutional Animal Care and Use Committee of the Konkuk University (approval no. KU 23046). Whole blood (1-2 mL) was obtained from the external jugular vein after initiation of postoperative TOC treatment. Blood samples were collected in ethylenediaminetetraacetic acid tubes 6 h (Cmax) and 48 h (Cmin) after administration; these time points were determined based on previous studies. Within 30 min of collection, the samples were centrifuged at 3000× g for 10 min at 4 °C. The plasma was separated, divided into cryovials, and stored at -80 °C until analysis. […] Plasma toceranib was quantitated via high-performance liquid chromatography with tandem mass spectrometry detection (LC-MS/MS). […] After thorough vortexing for 1 min, the mixture was centrifuged at 15,000× g for 10 min at 4 °C, and 2 μL of the supernatant was collected and injected into the LC-MS/MS system. The LC-MS/MS system comprised an ExionLCTM AD system (Sciex, Toronto, ON, Canada) coupled with a Triple QuadTM 5500+ mass system (Sciex). Data were acquired using Analyst 1.4.3. Chromatographic separation was performed using an XBridge C18 column (100 × 2.1 mm, 5 μm; Waters Corporation, Milford, MA, USA) maintained at 40 °C. An isocratic mobile phase comprising 0.1% formic acid in water and 0.1% formic acid in acetonitrile (30:70, v/v) was used at a flow rate 0.50 mL/min, with the total run time not exceeding 3 min. The autosampler was maintained at 15 °C. All measurements were conducted using a mass spectrometer operated in the positive electrospray ionization mode. The multiple reaction monitoring transitions were m/z 397.2 → 283.0 for toceranib and m/z 405.2 → 283.1 for the toceranib-d8 internal standard (IS). The other parameters were as follows: collision gas, curtain gas, ion source gas 1, and ion source gas 2 at 7, 35, 50, and 70 psi, respectively; dwell time, 200 ms; ion spray voltage and temperature, 4000 V and 600 °C, respectively; declustering potential, 80 V for toceranib and the IS; collision energy, 40 V for toceranib and the IS; entrance potential (EP), 12 V for toceranib and 8 V for IS; and collision exit potential, 16 V for toceranib and 18 V for the IS. Standard curves were generated using the peak area ratios of toceranib to the IS and 1/x^2 weighted linear regression. Toceranib concentrations were determined via interpolation across a range of 5-500 ng/mL. Continuous variables are expressed as the mean ± standard deviation. Interpatient variability is expressed as the coefficient of variation, calculated as standard deviation divided by the mean and expressed as a percentage. Normality was assessed using the Shapiro-Wilk test. Continuous variables were compared using Student's t-test or Mann-Whitney U test. Linear mixed models for repeated measures were used to compare plasma TOC concentrations over time. Data were analyzed using SPSS v26.0 (IBM Corp., Armonk, NY, USA). Differences were considered significant at p < 0.05.

[5] = test system: malignant solid tumors; assay: Assessment of clinical outcome (tumor recurrence) in dogs with solid tumors on postoperative TOC; assay type: in vivo
Procedure: A prospective, randomized clinical trial was conducted on client-owned dogs diagnosed with malignant solid tumors between May 2022 and October 2023 at the Konkuk University Animal Cancer Center. TOC (Palladia®, Zoetis, Parsippany, NJ, USA) was administered orally at a dose range of 2.4–2.9 mg/kg every other day with or without food. Medical data for the dogs were collected, including signalment (age, sex, and neuter status); physical examination, blood pressure, hematology, biochemistry, urinalysis, diagnostic imaging (radiography, ultrasound, and computed tomography), and histopathological findings (surgical margin and mitotic count); TOC dose and duration of TOC treatment; and AEs and clinical outcomes. Dogs were excluded from this study if distant metastases were confirmed at the time of diagnosis or if the TOC treatment duration was less than 1 month, which is insufficient for evaluating its effect. This clinical trial was approved by the Institutional Animal Care and Use Committee of the Konkuk University (approval no. KU 23046).
Rechecks were performed every 1–2 months after the initiation of TOC treatment through physical examination, three-view thoracic radiography, and abdominal ultrasonography.

[6] = set-up: method as in PMID 24079884; details: cited from earlier work
[7] = cited from earlier work; remark: listed apart in the source
[8] = set-up: method as in PMID 12855656; details: preclinical trials in rodent models; cited from earlier work
[9] = set-up: method as in PMID 34512023, PMID 31782166; details: patients with metastatic renal cell tumors; cited from earlier work

## Cc1[nH]c(/C=C2\C(=O)Nc3ccc(F)cc32)c(C)c1C(=O)NCCN1CCCC1 [TOC, Toceranib phosphate]
[1]; dogs with mast cell tumors receiving TOC at the MTD
  Cmax level associated with clinical efficacy: at least 40 ng/mL
[1]; in dogs
  elimination half-life: approximately 17 h
[1]; previous PK study
  interpatient coefficient of variation for Cmax: 35–40%
  interpatient coefficient of variation for Cmin: 30–61%
[2]
  clinical benefit: 50–90%
[3]; five of the nine dogs in which Cmax was measured
  dogs that experienced AEs: 55.6%
[3]; five out of ten dogs, follow-up period
  dogs that experienced AEs: 50%
[3]; two of the four dogs in which Cmin was measured
  dogs that experienced AEs: 50%
[4]; dog, in vivo
  mean interpatient variability in dose-normalized Cmax (coefficient of variation): 29%
[4]; dog, in vivo, 48 h
  mean interpatient variability in dose-normalized Cmin (coefficient of variation): 61%
[4]; dog, dogs with AEs, read-out: mean Cmin
  concentration at 48 h: 13.5 ± 12.1 ng/mL
[4]; dog, dogs without AEs, read-out: mean Cmin
  concentration at 48 h: 14.9 ± 11.3 ng/mL
[4]; dog, four dogs, mean ± SD, read-out: overall mean Cmin
  concentration at 48 h: 14.2 ± 9.57 ng/mL
[4]; dog, dogs with AEs, read-out: mean Cmax at week 1
  Cmax: 89.3 ± 26.3 ng/mL
[4]; dog, dogs with AEs, read-out: mean Cmax on average
  Cmax: 86.2 ± 28.6 ng/mL
[4]; dog, dogs with tumor recurrence, read-out: mean Cmax at week 1
  Cmax: 74.6 ± 49.9 ng/mL
[4]; dog, dogs with tumor recurrence, read-out: mean Cmax on average
  Cmax: 82.7 ± 42.6 ng/mL
[4]; dog, dogs without AEs, read-out: mean Cmax at week 1
  Cmax: 59.9 ± 20.2 ng/mL
[4]; dog, dogs without AEs, read-out: mean Cmax on average
  Cmax: 64.1 ± 8.58 ng/mL
[4]; dog, dogs without tumor recurrence, read-out: mean Cmax at week 1
  Cmax: 77 ± 13.7 ng/mL
[4]; dog, dogs without tumor recurrence, read-out: mean Cmax on average
  Cmax: 73.2 ± 12.3 ng/mL
[4]; dog, individual dogs (case no. in c0), plasma 6 h after oral administration, week 12, read-out: Cmax Week 12
  Cmax: 47.4 ng/mL
[4]; dog, nine dogs, average of weeks, mean ± SD, read-out: overall mean Cmax on average
  Cmax: 76.4 ± 22.5 ng/mL
[4]; dog, nine dogs, mean ± SD, read-out: overall mean Cmax at week 1
  Cmax: 76.2 ± 27.2 ng/mL
[4]; dogs, oral dosing every other day
  time to steady-state plasma concentration: ≤ 1 week
[5]; three of the nine dogs with Cmax measured
  dogs that developed tumor recurrence: 33.3%
[5]; three out of ten dogs, follow-up period
  dogs that developed local recurrence: 30%
[6]; TOC administered within 2.4 to 2.9 mg/kg
  resulting Cmax: > 40 ng/mL
[6]
  dogs in which Cmax was reached at 6 or 8 h post-administration: 69%
  plasma concentration at 6 or 8 h as share of actual Cmax in the remaining dogs: > 75%
[7]; 11/16 dogs treated with 2.5 mg/kg TOC every other day
  biological activity (dogs responding): 69%
[7]; 12/20 dogs treated with TOC at the MTD
  biological activity (dogs responding): 60%
[7]; every other day, dogs
  maximum tolerated dose (MTD): 3.25 mg/kg
[8]
  therapeutic range (plasma concentration): 50 to 100 ng/mL

## CCN(CC)CCNC(=O)c1c(C)[nH]c(/C=C2\C(=O)Nc3ccc(F)cc32)c1C [sunitinib]
[9]
  interpatient PK variability: 34–60%
